In patent US20100267561A1, “HERBICIDAL PYRIDAZINONE DERIVATIVES” (priority 2007, published 2010):

What was measured:
Assay type in all cases: in vivo
[1] = test system: bermudagrass (Cynodon dactylon); assay: Test B pre-/postemergence plant response; conditions: for Bermudagrass plant response rating: 8 g ai/ha
Summary of the method: (§1)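 Preemergence and postemergence (plants 2-18 cm, 1- to 4-leaf stage) applications used test chemicals in a non-phytotoxic solvent with surfactant. Plants were held in a greenhouse 13 to 15 days, then rated visually against controls on a 0-100 scale (0 no effect, 100 complete control).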

[2] = test system: catchweed bedstraw (Galium aparine); assay: Test B pre-/postemergence plant response; conditions: Preemergence; for Galium plant response rating: 8 g ai/ha
Summary of the method: as §1

[3] = test system: cocklebur (Xanthium strumarium); assay: Test B pre-/postemergence plant response; conditions: for Cocklebur plant response rating: 8 g ai/ha
Summary of the method: as §1

[4] = test system: downy bromegrass (Bromus tectorum); assay: Test B pre-/postemergence plant response; conditions: for Bromegrass, Downy plant response rating: 8 g ai/ha
Summary of the method: as §1

[5] = test system: large crabgrass (Digitaria sanguinalis); assay: Test B pre-/postemergence plant response; conditions: for Crabgrass, Large plant response rating: 8 g ai/ha
Summary of the method: as §1

soybean (Glycine max) = assay: Test B pre-/postemergence plant response; conditions: for Soybean plant response rating: 8 g ai/ha
Summary of the method: as §1

[6] = test system: velvetleaf (Abutilon theophrasti); assay: Test B pre-/postemergence plant response; conditions: for Velvetleaf plant response rating: 8 g ai/ha
Summary of the method: as §1

[7] = test system: wheat (Triticum aestivum); assay: Test B pre-/postemergence plant response; conditions: for Wheat plant response rating: 8 g ai/ha
Summary of the method: as §1

wild oat (Avena fatua) = assay: Test B pre-/postemergence plant response; conditions: for Oat, Wild plant response rating: 8 g ai/ha
Summary of the method: as §1

[8] = test system: woolly cupgrass (Eriochloa villosa); assay: Test B pre-/postemergence plant response; conditions: for Cupgrass, Woolly plant response rating: 8 g ai/ha
Summary of the method: as §1

[9] = test system: barnyardgrass (Echinochloa crus-galli); assay: Test B flooded paddy test plant response
Summary of the method: (§2)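 Paddy-water application to 2-leaf plants in pots held under 3 cm of flooding; response is a 0–100 visual control rating against controls after 13 to 15 days, and a dash marks a missing result.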

[10] = test system: ducksalad (Heteranthera limosa); assay: Test B flooded paddy test plant response
Summary of the method: as §2

rice (Oryza sativa) = assay: Test B flooded paddy test plant response
Summary of the method: as §2

[11] = test system: umbrella sedge (Cyperus difformis); assay: Test B flooded paddy test plant response
Summary of the method: as §2

[12] = Postemergence, 16 g ai/ha, scale 0 to 100
[13] = Postemergence, 31 g ai/ha, scale 0 to 100, 0 no effect, 100 complete control
[14] = Postemergence, 62 g ai/ha, scale 0 to 100, 0 no effect, 100 complete control
[15] = Preemergence, scale 0 to 100 (0 no effect, 100 complete control)
[16] = Preemergence, 16 g ai/ha, scale 0 to 100 (0 no effect, 100 complete control)
[17] = Preemergence, 31 g ai/ha, 0 to 100 scale, 0 no effect, 100 complete control
[18] = Preemergence, 62 g ai/ha, scale 0 to 100
[19] = 16 g ai/ha, scale 0 to 100 (0 no effect, 100 complete control)
[20] = Flood (flooded paddy test), 62 g ai/ha, scale 0 to 100, 0 no effect, 100 complete control
[21] = Flood (flooded paddy test), 125 g ai/ha, scale 0 to 100, 0 no effect, 100 complete control
[22] = Flood (flooded paddy test), 250 g ai/ha, scale 0 to 100, 0 no effect, 100 complete control
[23] = Flood, 31 g ai/ha, scale 0 to 100
[24] = Preemergence, 31 g ai/ha, scale 0 to 100 (0 no effect, 100 complete control)
[25] = Preemergence, 62 g ai/ha, 0 to 100 scale, 0 no effect, 100 complete control

Cc1cc(-c2ccc(Cl)cc2)nn1-c1c(OC(=O)CC(C)C)cnn(C)c1=O [Compound 37]
Bermudagrass plant response rating ([1]; postemergence, 0-100 scale): 80
Plant response rating, Bermudagrass [1, 12]: 85
Plant response rating, Bermudagrass [1, 13]: 100
Plant response rating, Bermudagrass [1, 14]: 100
Bermudagrass plant response rating [1, 15]: 90
Plant response rating, Bermudagrass [1, 16]: 90
Plant response rating, Bermudagrass [1, 17]: 100
Plant response rating, Bermudagrass [1, 18]: 100
Plant response rating, Galium [2, 19]: 0
Plant response rating, Galium ([2]; 31 g ai/ha, 0 to 100 scale, 0 no effect, 100 complete control): 0
Plant response rating, Galium ([2]; 62 g ai/ha, scale 0 to 100): 0
Galium plant response rating ([2]; scale 0 to 100): 0
Cocklebur plant response rating ([3]; postemergence, 0-100 scale): 0
Plant response rating, Cocklebur [3, 12]: 0
Plant response rating, Cocklebur [3, 13]: 0
Plant response rating, Cocklebur [3, 14]: 0
Plant response rating, Cocklebur [3, 16]: 0
Plant response rating, Cocklebur [3, 17]: 0
Plant response rating, Cocklebur [3, 18]: 0
Cocklebur plant response rating ([3]; Preemergence, scale 0 to 100): 0
Bromegrass, Downy plant response rating ([4]; postemergence, 0-100 scale): 0
Plant response rating, Bromegrass, Downy [4, 12]: 55
Plant response rating, Bromegrass, Downy [4, 13]: 55
Plant response rating, Bromegrass, Downy [4, 14]: 75
Plant response rating, Bromegrass, Downy [4, 16]: 30
Plant response rating, Bromegrass, Downy [4, 17]: 60
Plant response rating, Bromegrass, Downy [4, 18]: 80
Bromegrass, Downy plant response rating ([4]; Preemergence, scale 0 to 100): 0
Crabgrass, Large plant response rating ([5]; postemergence, 0-100 scale): 70
Plant response rating, Crabgrass, Large [5, 12]: 70
Plant response rating, Crabgrass, Large [5, 13]: 85
Plant response rating, Crabgrass, Large [5, 14]: 100
Plant response rating, Crabgrass, Large [5, 16]: 98
Plant response rating, Crabgrass, Large [5, 17]: 100
Plant response rating, Crabgrass, Large [5, 18]: 100
Crabgrass, Large plant response rating ([5]; Preemergence, scale 0 to 100): 70
Soybean plant response rating (soybean (Glycine max); postemergence, 0-100 scale): 0
Plant response rating, Soybean (soybean (Glycine max); [12]): 0
Plant response rating, Soybean (soybean (Glycine max); [14]): 0
Plant response rating, Soybean (soybean (Glycine max); [16]): 0
Plant response rating, Soybean (soybean (Glycine max); [17]): 0
Plant response rating, Soybean (soybean (Glycine max); [18]): 0
Soybean plant response rating (soybean (Glycine max); Preemergence, scale 0 to 100): 0
Velvetleaf plant response rating ([6]; postemergence, 0-100 scale): 0
Plant response rating, Velvetleaf [6, 12]: 0
Plant response rating, Velvetleaf [6, 14]: 0
Plant response rating, Velvetleaf [6, 16]: 0
Plant response rating, Velvetleaf [6, 17]: 0
Plant response rating, Velvetleaf [6, 18]: 0
Velvetleaf plant response rating ([6]; Preemergence, scale 0 to 100): 0
Wheat plant response rating ([7]; postemergence, 0-100 scale): 15
Plant response rating, Wheat [7, 12]: 50
Plant response rating, Wheat [7, 14]: 95
Plant response rating, Wheat [7, 16]: 0
Plant response rating, Wheat [7, 17]: 5
Plant response rating, Wheat [7, 18]: 70
Wheat plant response rating ([7]; Preemergence, scale 0 to 100): 0
Oat, Wild plant response rating (wild oat (Avena fatua); postemergence, 0-100 scale): 85
Plant response rating, Oat, Wild (wild oat (Avena fatua); [12]): 95
Plant response rating, Oat, Wild (wild oat (Avena fatua); [13]): 95
Plant response rating, Oat, Wild (wild oat (Avena fatua); [14]): 98
Plant response rating, Oat, Wild (wild oat (Avena fatua); [16]): 65
Plant response rating, Oat, Wild (wild oat (Avena fatua); [17]): 80
Plant response rating, Oat, Wild (wild oat (Avena fatua); [18]): 95
Oat, Wild plant response rating (wild oat (Avena fatua); Preemergence, scale 0 to 100): 0
Cupgrass, Woolly plant response rating ([8]; postemergence, 0-100 scale): 90
Plant response rating, Cupgrass, Woolly [8, 12]: 98
Plant response rating, Cupgrass, Woolly [8, 13]: 100
Plant response rating, Cupgrass, Woolly [8, 14]: 100
Plant response rating, Cupgrass, Woolly [8, 16]: 50
Plant response rating, Cupgrass, Woolly [8, 17]: 50
Plant response rating, Cupgrass, Woolly [8, 18]: 100
Cupgrass, Woolly plant response rating ([8]; Preemergence, scale 0 to 100): 50
Plant response rating, Barnyardgrass [9, 20]: 60
Plant response rating, Barnyardgrass [9, 21]: 100
Plant response rating, Barnyardgrass [9, 22]: 100
Plant response rating, Barnyardgrass [9, 23]: 30
Plant response rating, Ducksalad [10, 20]: 70
Plant response rating, Ducksalad [10, 21]: 70
Plant response rating, Ducksalad [10, 22]: 75
Plant response rating, Rice (rice (Oryza sativa); [20]): 70
Plant response rating, Rice (rice (Oryza sativa); [21]): 80
Plant response rating, Rice (rice (Oryza sativa); [22]): 90
Plant response rating, Rice (rice (Oryza sativa); [23]): 0
Plant response rating, Sedge, Umbrella [11, 20]: 0
Plant response rating, Sedge, Umbrella [11, 21]: 0
Plant response rating, Sedge, Umbrella [11, 22]: 60

Cc1cc(-c2ccc(Cl)cc2)nn1-c1c(OS(=O)(=O)C(C)C)cnn(C)c1=O [Compound 50]
Bermudagrass plant response rating [1, 15]: 90
Plant response rating, Bermudagrass [1, 16]: 100
Plant response rating, Bermudagrass [1, 17]: 100
Plant response rating, Bermudagrass [1, 18]: 100
Plant response rating, Galium [2, 19]: 0
Galium plant response rating ([2]; scale 0 to 100): 0
Plant response rating, Cocklebur [3, 16]: 0
Plant response rating, Cocklebur [3, 17]: 0
Plant response rating, Cocklebur [3, 18]: 0
Cocklebur plant response rating ([3]; Preemergence, scale 0 to 100): 0
Plant response rating, Bromegrass, Downy [4, 16]: 0
Plant response rating, Bromegrass, Downy [4, 17]: 0
Plant response rating, Bromegrass, Downy [4, 18]: 0
Bromegrass, Downy plant response rating ([4]; Preemergence, scale 0 to 100): 0
Plant response rating, Crabgrass, Large [5, 16]: 98
Plant response rating, Crabgrass, Large [5, 17]: 100
Plant response rating, Crabgrass, Large [5, 18]: 100
Crabgrass, Large plant response rating ([5]; Preemergence, scale 0 to 100): 60
Plant response rating, Soybean (soybean (Glycine max); [16]): 50
Plant response rating, Soybean (soybean (Glycine max); [24]): 100
Plant response rating, Soybean (soybean (Glycine max); [18]): 100
Soybean plant response rating (soybean (Glycine max); Preemergence, scale 0 to 100): 0
Plant response rating, Velvetleaf [6, 16]: 0
Plant response rating, Velvetleaf [6, 24]: 0
Plant response rating, Velvetleaf [6, 25]: 0
Velvetleaf plant response rating ([6]; Preemergence, scale 0 to 100): 0
Plant response rating, Wheat [7, 16]: 0
Plant response rating, Wheat [7, 24]: 0
Plant response rating, Wheat [7, 25]: 0
Wheat plant response rating ([7]; Preemergence, scale 0 to 100): 0
Plant response rating, Oat, Wild (wild oat (Avena fatua); [16]): 40
Plant response rating, Oat, Wild (wild oat (Avena fatua); [24]): 40
Plant response rating, Oat, Wild (wild oat (Avena fatua); [18]): 70
Oat, Wild plant response rating (wild oat (Avena fatua); Preemergence, scale 0 to 100): 20
Plant response rating, Cupgrass, Woolly [8, 16]: 75
Plant response rating, Cupgrass, Woolly [8, 17]: 98
Plant response rating, Cupgrass, Woolly [8, 18]: 100
Cupgrass, Woolly plant response rating ([8]; Preemergence, scale 0 to 100): 20
Plant response rating, Barnyardgrass [9, 20]: 0
Plant response rating, Barnyardgrass [9, 21]: 0
Plant response rating, Barnyardgrass [9, 22]: 0
Plant response rating, Barnyardgrass [9, 23]: 0
Plant response rating, Ducksalad [10, 20]: 0
Plant response rating, Ducksalad [10, 21]: 0
Plant response rating, Ducksalad [10, 22]: 0
Plant response rating, Ducksalad [10, 23]: 0
Plant response rating, Rice (rice (Oryza sativa); [20]): 0
Plant response rating, Rice (rice (Oryza sativa); [21]): 0
Plant response rating, Rice (rice (Oryza sativa); [22]): 0
Plant response rating, Rice (rice (Oryza sativa); [23]): 0
Plant response rating, Sedge, Umbrella [11, 20]: 0
Plant response rating, Sedge, Umbrella [11, 21]: 0
Plant response rating, Sedge, Umbrella [11, 22]: 0
Plant response rating, Sedge, Umbrella [11, 23]: 0
